Reference: patent publication US5541175A, “Cephalosporin antibiotics” (Lucky, Ltd., priority 1993, dated 1996)
Converted amounts (≈) assume the structure as drawn. Like-named read-outs stand apart in the source and are kept apart here.

Tests used:
Assay in all cases: Minimum inhibitory concentration (agar 2-fold dilution)
Assay type in all cases: cell-based
[1] = test system: Escherichia coli 10536; settings: read-out: Minimum Inhibitory Concentration
Procedure: (§1) The minimum inhibitory concentration was determined by diluting the test compounds according to 2-fold dilution, suspending them in Muller-Hinton agar medium, inoculating 2 μl of the suspension containing the test strains having 10^7 CFU (Colony Forming Unit) per 1 ml into the medium and then culturing the test strains at 37° C. for 20 hours.

[2] = test system: Staphylococcus aureus 6538P; settings: S. aureus 6538P, Muller-Hinton agar, 37° C., 20 hours, read-out: Minimum Inhibitory Concentration
Procedure: as §1

[3] = test system: Staphylococcus aureus 77; settings: Staphylococcus aureus; S. aureus 77; Muller-Hinton agar, 37° C., 20 hours; read-out: Minimum Inhibitory Concentration
Procedure: as §1

[4] = test system: Pseudomonas aeruginosa 10145; settings: Pseudomonas aeruginosa; P. aeruginosa 10145; Muller-Hinton agar, 37° C., 20 hours; read-out: Minimum Inhibitory Concentration
Procedure: as §1

[5] = test system: Escherichia coli TEM5 3739E; settings: TEM53739E, 20 h, read-out: Minimum Inhibitory Concentration
Procedure: as §1

[6] = test system: Escherichia coli TEM1 1193E; settings: TEM11193E, 20 h, read-out: Minimum Inhibitory Concentration
Procedure: as §1

[7] = test system: Serratia marcescens 1826E; settings: S. marcescens 1826E, Muller-Hinton agar, 37° C., 20 hours, read-out: Minimum Inhibitory Concentration
Procedure: as §1

[8] = test system: Streptococcus faecalis 29212A; settings: Enterococcus faecalis; S. faecalis 29212A; Muller-Hinton agar, 37° C., 20 hours; read-out: Minimum Inhibitory Concentration
Procedure: as §1

[9] = test system: Proteus vulgaris 6059A; settings: P. vulgaris 6059A, Muller-Hinton agar, 37° C., 20 hours, read-out: Minimum Inhibitory Concentration
Procedure: as §1

[10] = test system: Staphylococcus aureus 241; settings: Staphylococcus aureus; S. aureus 241; Muller-Hinton agar, 37° C., 20 hours; read-out: Minimum Inhibitory Concentration
Procedure: as §1

[11] = test system: Staphylococcus aureus giorgio; settings: S. aureus giorgio, Muller-Hinton agar, 37° C., 20 hours, read-out: Minimum Inhibitory Concentration
Procedure: as §1

[12] = test system: Escherichia coli TEM7 3457E; settings: TEM73457E, 20 h, read-out: Minimum Inhibitory Concentration
Procedure: as §1

[13] = test system: Enterobacter cloacae IND + VE 1194E; settings: E. cloacae IND + VE 1194E, Muller-Hinton agar, 37° C., 20 hours, read-out: Minimum Inhibitory Concentration
Procedure: as §1

[14] = test system: Klebsiella aerogenes K1 + 1082E; settings: 20 h, read-out: Minimum Inhibitory Concentration
Procedure: as §1

[15] = test system: Escherichia coli TEM9 2639E; settings: TEM92639E, 20 h, read-out: Minimum Inhibitory Concentration
Procedure: as §1

[16] = test system: Pseudomonas aeruginosa 6065; settings: Pseudomonas aeruginosa; P. aeruginosa 6065; Muller-Hinton agar, 37° C., 20 hours; read-out: Minimum Inhibitory Concentration
Procedure: as §1

[17] = test system: Salmonella typhimurium 14028A; settings: Salmonella enterica; S. typhimurium 14028A; Muller-Hinton agar, 37° C., 20 hours; read-out: Minimum Inhibitory Concentration
Procedure: as §1

[18] = test system: Staphylococcus aureus epidermidis 887E; settings: S. aureus epidermidis 887E, Muller-Hinton agar, 37° C., 20 hours, read-out: Minimum Inhibitory Concentration
Procedure: as §1

[19] = test system: Pseudomonas aeruginosa 1912E; settings: P. aeruginosa 1912E, Muller-Hinton agar, 37° C., 20 hours, read-out: Minimum Inhibitory Concentration
Procedure: as §1

[20] = test system: Escherichia coli 851E; settings: E. coli 851E, Muller-Hinton agar, 37° C., 20 hours
Procedure: as §1

[21] = test system: Acinetobacter calcoaceticus 15473A; settings: A. calcoaceticus 15473A, Muller-Hinton agar, 37° C., 20 hours, read-out: Minimum Inhibitory Concentration
Procedure: as §1

[22] = test system: Escherichia coli 3190Y; settings: E. coli 3190Y, Muller-Hinton agar, 37° C., 20 hours, read-out: Minimum Inhibitory Concentration
Procedure: as §1

[23] = test system: Klebsiella aerogenes SHV-1 1976E; settings: SHV11976E, K. aerogenes SHV-1 1976E, Muller-Hinton agar, 37° C., 20 hours
Procedure: as §1

[24] = test system: Escherichia coli TEM3 3455E; settings: TEM33455E, 20 h, read-out: Minimum Inhibitory Concentration
Procedure: as §1

[25] = test system: Citrobacter diversus 2046E; settings: Citrobacter koseri; C. diversus 2046E; Muller-Hinton agar, 37° C., 20 hours; read-out: Minimum Inhibitory Concentration
Procedure: as §1

[26] = test system: Enterobacter cloacae P99; settings: P99, 20 h, read-out: Minimum Inhibitory Concentration
Procedure: as §1

[27] = Escherichia coli, E. coli 10536, Muller-Hinton agar, 37° C., 20 hours

Q: `Cc1c(N)nc[n+](C/C=C/C2=C(C(=O)[O-])N3C(=O)[C@@H](NC(=O)/C(=N\O[C@@H](C(=O)O)c4ccc(O)c(O)c4)c4csc(N)n4)[C@H]3SC2)c1N` [Compound I-4b, 7-[(Z)-2-(2-aminothiazol-4-yl)-2-(α-carboxy-3,4-dihydroxybenzyloxyimino)acetamido]-3-[(E)-3-(4,6-diamino-5-methylpyrimidinium-1-yl)-1-propen-1-yl]-3-cephem-4-carboxylate] was tested. Which MIC [1, 27] did it give?
A: 0.13 µg/mL (≈ 0.186 µM)

Q: What about the MIC [2] of the same compound?
A: 0.5 µg/mL (≈ 0.717 µM)

Q: And the MIC [3]?
A: 2 µg/mL (≈ 2.87 µM)

Q: And the MIC [4]?
A: 4 µg/mL (≈ 5.73 µM)

Q: What about the MIC [5] of the same compound?
A: 1 µg/mL (≈ 1.43 µM)

Q: What about the MIC [6] of the same compound?
A: 0.25 µg/mL (≈ 0.358 µM)

Q: What about the MIC [7] of the same compound?
A: 2 µg/mL (≈ 2.87 µM)

Q: And the MIC [8]?
A: 8 µg/mL (≈ 11.5 µM)

Q: What about the MIC [9] of the same compound?
A: 1 µg/mL (≈ 1.43 µM)

Q: What about the MIC [10] of the same compound?
A: 128 µg/mL (≈ 183 µM)

Q: What about the MIC [11] of the same compound?
A: 0.5 µg/mL (≈ 0.717 µM)

Q: And the MIC [12]?
A: 0.25 µg/mL (≈ 0.358 µM)

Q: And the MIC [13]?
A: 8 µg/mL

Q: And the MIC [14]?
A: 2 µg/mL (≈ 2.87 µM)

Q: And the MIC [15]?
A: 1 µg/mL (≈ 1.43 µM)

Q: What about the MIC [16] of the same compound?
A: 16 µg/mL (≈ 22.9 µM)

Q: What about the MIC [17] of the same compound?
A: 0.13 µg/mL (≈ 0.186 µM)

Q: What about the MIC [18] of the same compound?
A: 32 µg/mL (≈ 45.9 µM)

Q: What about the MIC [19] of the same compound?
A: 8 µg/mL (≈ 11.5 µM)

Q: And the MIC [20]?
A: 0.13 µg/mL (≈ 0.186 µM)

Q: What about the MIC [21] of the same compound?
A: 4 µg/mL (≈ 5.73 µM)

Q: And the MIC [22]?
A: 0.13 µg/mL (≈ 0.186 µM)

Q: What about the MIC [23] of the same compound?
A: 1 µg/mL (≈ 1.43 µM)

Q: And the MIC [24]?
A: 0.5 µg/mL (≈ 0.717 µM)

Q: What about the MIC [25] of the same compound?
A: 4 µg/mL (≈ 5.73 µM)

Q: What about the MIC [26] of the same compound?
A: 16 µg/mL (≈ 22.9 µM)

Q: How did the MIC ([1]; Escherichia coli, 10536, 20 h) turn out when `Nc1cc(N)[n+](C/C=C/C2=C(C(=O)[O-])N3C(=O)[C@@H](NC(=O)/C(=N\O[C@@H](C(=O)O)c4ccc(O)c(O)c4)c4csc(N)n4)[C@H]3SC2)cn1` [Compound I-1b, 7-[(Z)-2-(2-aminothiazol-4-yl)-2-(α-carboxy-3,4-dihydroxybenzyloxyimino)acetamido]-3-[(E)-3-(4,6-diaminopyrimidinium-1-yl)-1-propen-1-yl]-3-cephem-4-carboxylate] was run?
A: 0.13 µg/mL (≈ 0.19 µM)

Q: What about the MIC [2] of the same compound?
A: 0.5 µg/mL (≈ 0.731 µM)

Q: What about the MIC [3] of the same compound?
A: 2 µg/mL (≈ 2.93 µM)

Q: And the MIC [4]?
A: 32 µg/mL (≈ 46.8 µM)

Q: And the MIC [5]?
A: 2 µg/mL (≈ 2.93 µM)

Q: What about the MIC [6] of the same compound?
A: 0.25 µg/mL (≈ 0.366 µM)

Q: And the MIC [7]?
A: 2 µg/mL (≈ 2.93 µM)

Q: And the MIC [8]?
A: 8 µg/mL (≈ 11.7 µM)

Q: What about the MIC [9] of the same compound?
A: 0.5 µg/mL (≈ 0.731 µM)

Q: What about the MIC [10] of the same compound?
A: 128 µg/mL (≈ 187 µM)

Q: And the MIC [11]?
A: 0.5 µg/mL (≈ 0.731 µM)

Q: And the MIC [12]?
A: 0.25 µg/mL (≈ 0.366 µM)

Q: And the MIC [13]?
A: 64 µg/mL

Q: And the MIC [14]?
A: 2 µg/mL (≈ 2.93 µM)

Q: And the MIC [15]?
A: 2 µg/mL (≈ 2.93 µM)

Q: And the MIC [16]?
A: 32 µg/mL (≈ 46.8 µM)

Q: And the MIC [17]?
A: 0.13 µg/mL (≈ 0.19 µM)

Q: And the MIC [18]?
A: 64 µg/mL (≈ 93.6 µM)

Q: And the MIC [19]?
A: 64 µg/mL (≈ 93.6 µM)

Q: What about the MIC [20] of the same compound?
A: 0.13 µg/mL (≈ 0.19 µM)

Q: And the MIC [21]?
A: 4 µg/mL (≈ 5.85 µM)

Q: And the MIC [22]?
A: 0.13 µg/mL (≈ 0.19 µM)

Q: What about the MIC [23] of the same compound?
A: 1 µg/mL (≈ 1.46 µM)

Q: What about the MIC [24] of the same compound?
A: 0.5 µg/mL (≈ 0.731 µM)

Q: And the MIC [25]?
A: 16 µg/mL (≈ 23.4 µM)

Q: What about the MIC [26] of the same compound?
A: 128 µg/mL (≈ 187 µM)

Q: How did the MIC [1, 27] turn out when `Nc1cc[n+](C/C=C/C2=C(C(=O)[O-])N3C(=O)[C@@H](NC(=O)/C(=N\O[C@@H](C(=O)O)c4ccc(O)c(O)c4)c4csc(N)n4)[C@H]3SC2)cn1` [Compound I-2b, 7-[(Z)-2-(2-aminothiazol-4-yl)-2-(α-carboxy-3,4-dihydroxybenzyloxyimino)acetamido]-3-[(E)-3-(4-aminopyrimidinium-1-yl)-1-propen-1-yl]-3-cephem-4-carboxylate] was run?
A: 0.13 µg/mL (≈ 0.194 µM)

Q: What about the MIC [2] of the same compound?
A: 0.5 µg/mL (≈ 0.748 µM)

Q: What about the MIC [3] of the same compound?
A: 2 µg/mL (≈ 2.99 µM)

Q: What about the MIC [4] of the same compound?
A: 8 µg/mL (≈ 12 µM)

Q: And the MIC [5]?
A: 0.1 µg/mL (≈ 0.15 µM)

Q: And the MIC [6]?
A: 0.25 µg/mL (≈ 0.374 µM)

Q: What about the MIC [7] of the same compound?
A: 1 µg/mL (≈ 1.5 µM)

Q: And the MIC [8]?
A: 4 µg/mL (≈ 5.98 µM)

Q: And the MIC [9]?
A: 0.5 µg/mL (≈ 0.748 µM)

Q: And the MIC [10]?
A: 128 µg/mL (≈ 191 µM)

Q: And the MIC [11]?
A: 0.25 µg/mL (≈ 0.374 µM)

Q: And the MIC [12]?
A: 0.25 µg/mL (≈ 0.374 µM)

Q: And the MIC [13]?
A: 16 µg/mL

Q: And the MIC [14]?
A: 2 µg/mL (≈ 2.99 µM)

Q: What about the MIC [15] of the same compound?
A: 0.5 µg/mL (≈ 0.748 µM)

Q: And the MIC [16]?
A: 64 µg/mL (≈ 95.7 µM)

Q: What about the MIC [17] of the same compound?
A: 0.25 µg/mL (≈ 0.374 µM)

Q: What about the MIC [18] of the same compound?
A: 8 µg/mL (≈ 12 µM)

Q: What about the MIC [19] of the same compound?
A: 8 µg/mL (≈ 12 µM)

Q: And the MIC [20]?
A: 0.13 µg/mL (≈ 0.194 µM)

Q: And the MIC [21]?
A: 2 µg/mL (≈ 2.99 µM)

Q: What about the MIC [22] of the same compound?
A: 0.13 µg/mL (≈ 0.194 µM)

Q: And the MIC [23]?
A: 1 µg/mL (≈ 1.5 µM)

Q: And the MIC [24]?
A: 0.25 µg/mL (≈ 0.374 µM)

Q: And the MIC [25]?
A: 4 µg/mL (≈ 5.98 µM)

Q: What about the MIC [26] of the same compound?
A: 32 µg/mL (≈ 47.9 µM)
